Source: patent US9034624B2, “Process for the synthesis of conjugates of glycosaminoglycanes (GAG) with biologically active molecules, polymeric conjugates and relative uses thereof” (FIDIA FARMACEUTICI S.P.A., priority 2009, dated 2015)

Legend:
[1] = cited from earlier work
[2] = glucose levels in blood, streptozocin-induced diabetes type I model; assay type: in vivo, rat; details: for effect on glucose level in the blood: diabetic rats (streptozocin 70 mg/Kg), conjugate subcutaneous
Method: 3.00 g of the aldehyde derivative of HA (activated intermediate) according to Example 1 are dissolved at a concentration of 10 mg/ml in an acid environment by the presence of phosphoric acid at a temperature of 60° C. for 2 hours. 4×10^−5 moles of insulin, 4×10^−1 moles of cyanoborohydride are added to the hydrolyzed product previously cooled and the pH is regulated to 6.0. After 24 h of reaction, the adduct is purified and analyzed via dimensional exclusion chromatography; the relative chromatogram is visible in FIG. 8. The activity in vivo of the conjugate is evaluated on a model of induced diabetes type I in a rat after administration of streptozocin at a dose of 70 mg/Kg.
The HA-Insulin conjugate is administered subcutaneously at a dose of 5 or 20 μg of equivalent insulin. The biological activity of the conjugate is tested through the determination of the glucose levels in the blood of animals, measured by means of commercial kits (OneTouch® II, LifeScan, Johnson & Johnson), The control consists of healthy rats (group 1) and rats with induced diabetes treated with insulin (group 2). The results are illustrated in FIG. 9.

[3] = test system: cyclic 2′,3′-cytidine monophosphate (2′,3′-CMC); assay: residual enzymatic activity of RNAse A, free or bound to HA (absorption increase at 287 nm); assay type: biochemical; details: hydrolysis of 2′,3′-CMC, absorption at 287 nm
Method: 1.00 g of the aldehyde derivative of HA according to Example 1 are dissolved at a concentration of 8 mg/ml in an acid environment by the presence of phosphoric acid at a temperature of 50° C. for 2 hours. The pH is regulated to 6.0 and 2×10^−5 moles of RNAse A and 2×10^−1 moles of cyanoborohydride are added to the hydrolyzed product previously cooled. At this pH the reaction takes place specifically at the N-terminal end of the protein. After 24 h of reaction, the adduct is purified by dialysis against water and then freeze-dried. The corresponding GPC chromatogram registered under the conditions described in Example 14 can be found in FIG. 7. This type of conjugate is optimally suitable for measuring in vitro the residual activity of the enzyme, using a specific kit based on the evaluation of the absorption increase at 287 nm with time, determined by hydrolysis of the specific synthetic substrate cyclic 2′,3′-cytidine monophosphate (2′,3′-CMC).
A comparison of the residual activity of the enzyme, free or bound to HA, produces the following results: […]

Calcitonin
absorption half-life [1]: 10 to 15 min
elimination half-life [1]: 50 to 80 min

HA-Insulin: hyaluronic acid aldehyde derivative conjugated to insulin
effect on glucose level in the blood ([2]; 5 or 20 μg equivalent insulin): exerted more slowly, but has a considerably prolonged duration with time
effectiveness relative to the conjugated drug (insulin) ([2]; diabetic rats, subcutaneous): doubling the effectiveness
time span to bring glucose to a lower level than the group treated with insulin alone ([2]; diabetic rats, subcutaneous, 5 or 20 μg equivalent insulin): ≤ 5 h
duration for which the glucose lowering effect is maintained ([2]; diabetic rats, subcutaneous, duration of the experiment): 24 h

insulin: free insulin, control treatment of diabetic rats [reference compound]
effect on glucose level in the blood ([2]; 5 or 20 μg equivalent insulin): sudden decrease in the glucose level in the blood, which however returns to high values in a relatively rapid time scale

B1: RNAsi A: free enzyme RNAse A (protein, UniProt P61823 27-150, looked up)
Ribonuclease pancreatic: KETAAAKFERQHMDSSTSAASSSNYCNQMMKSRNLTKDRCKPVNTFVHESLADVQAVCSQKNVACKNGQTNCYQSYSTMSITDCRETGSSKYPNCAYKTTQANKHIIVACEGNPYVPVHFDASV
% Relative enzymatic activity [3]: 100%

B2: HA-Ac-RNAsi A: hyaluronic acid aldehyde derivative conjugated to RNAse A at the N-terminal end (conjugate, UniProt P61823 27-150, looked up)
Ribonuclease pancreatic: B1 Ribonuclease pancreatic
modifications: hyaluronic acid aldehyde conjugate
notes: hyaluronic acid aldehyde derivative conjugated to RNAse A at the N-terminal end
% Relative enzymatic activity [3]: 95.23%
